Series [1] in a line: Rat oral pharmacokinetics (plasma). The format is in vivo.
Description: Plasma (EDTA K2 anticoagulant) was collected from male, cannulated, CD Sprague Dawley rats to determine the pharmacokinetics of formulations containing compound inhibitors of Rho kinase. Each animal was dosed orally with a 4 ml/kg solution or suspension of each test compound in 10 mM acetate buffered saline, pH 4.5 at a final concentration range of 20-30 μmol/kg. Blood was collected at 0.25, 0.5, 1, 2, 4, 6, 8, and 24 hours. Plasma samples were assayed for the concentration of the test compound using an on-line, solid phase extraction LC/MS/MS analysis system.
Samples were analyzed on a QSTAR Elite, hybrid quadrupole time-of-flight mass spectrometer (Applied Biosystems, Framingham, Mass.) coupled with a Symbiosis Pharma integrated, on-line SPE-HPLC system (Spark Holland Inc., Plainsboro, N.J.). Analyst QS 2.0 software was used for instrument control, data acquisition and processing. […] Mobile Phase A consisted of 0.1% ammonium hydroxide in water and Mobile Phase B consisted of 0.1% formic acid in acetonitrile. Pharmacokinetic analyses were performed using WinNonlin software version 5.2 (Pharsight Corporation, Mountain View, Calif.).
As determined from the plasma concentration versus time curves, the time to peak and peak exposure are represented by the values Tmax and Cmax, respectively. The AUC values (nM*hr) shown were calculated as the areas under the plasma concentration versus time curves from time zero through the time of the last observable value and represent the total exposure of the compound over the course of the study. Half-life values or the amount of time required for the plasma levels of the compound to decline to half the initial value are represented as t1/2.
The subject of series [2] is ova-sensitized, ova-challenged mice. Description: Bronchodilator assay in ovalbumin-sensitized mice (Penh, methacholine). The format is in vivo, mouse. The settings on record: for log10AUC (penh): bronchodilator dosing paradigm. How it is done: Male BALB/c mice were ordered from Charles River Laboratories (Raleigh, N.C.). The animals were approximately 19 to 21 grams at time of receipt. Upon arrival, the animals were randomized into groups of five males per cage and assigned to a dosing group. Animals were quarantined for 7 days under test conditions. They were observed daily for general health status and ability to adapt to the water bottles.
Animals were sensitized on day 0 and 14 of study by an intraperitoneal injection with 20 μg of ovalbumin (ova) and 2.0 mg aluminum hydroxide (alum) which initiates the development of a specific T-helper (Th) cells type 2 resulting in asthmatic animals. One group of animals received an injection of saline to use as non-asthmatic control animals. All animals were challenged with aerosolized 1% ova once daily for 25 minutes on days 28, 29, and 30 (Zosky, et al. Respiratory Research. 2004; 5:15). Aerosol challenge consists of using an Aerogen Aeroneb nebulizer and controller with a particle size of 4-6 μm mass median aerodynamic diameter (MMAD) with a distribution of 400 μl per minute. This aerosol challenge is necessary to target the Th2-driven allergic inflammation in the lower airways.
The test compounds and the control vehicle were administered to animals on the day of airway hyperreactivity evaluation 30 minutes to 1 hour before the evaluation to determine the bronchodilator effects of the compounds according to the bronchodilator dosing paradigm (FIG. 8). Compounds were administered p.o. (orally), i.p. (intraperitoneally) at 15 μMol/kg unless otherwise noted (Table 6). Alternatively, compounds were administered i.t. (intratracheally) at varying doses as shown (FIG. 9). On day 32 of the experiment, airway hyperreactivity was evaluated by placing conscious, unrestrained animals in a whole body plethysmometer (Buxco Wilmington, N.C.) and exposing them to escalating doses of nebulized methacholine, a known bronchial constrictor which acts through the muscarinic receptors of the lungs, (doses: 0.325-50 mg/ml). Exposure to the methacholine doses consisted of a 3 minute period during which a nebulizer was aerosolizing the methacholine and an additional 3 minute period following the cessation of nebulization. Over this 6 minute period, the plethysmometer monitors and generates numerical values for all parameters of the breath pattern. Enhanced pause (Penh), a unitless index of airway hyperreactivity, is derived from the expiratory side of the respiratory waveform measured via the plethysmograph and is used as an indirect measure of airway resistance and hyperreactivity. […] Following the methacholine dose response, all animals were anesthetized, bled and euthanized.
Within each experiment, a mouse was given a single compound and exposed to increasing doses of methacholine [0 (baseline), 0.375, 0.75, 1.5, 3, 6, 12, 25, 50 mg/ml]. The Penh value at each of the dose levels of methacholine represents the 6-minute average response. Change from baseline (CFB) in Penh was calculated at each methacholine dose and the area under the curve (AUC) for these CFB values was calculated using the trapezoidal rule. This same approach was applied for each mouse across multiple experiments.
For statistical analyses, a linear mixed-effects model where the response was the log 10 transformed value of AUC described above was used. Data from equal experimental conditions across experiments performed on different days were pooled for statistical analysis and data reporting. The various compounds were compared adjusting for the log 10-transformed baseline value of Penh and the chamber (1 of 10) of the plethysmometer each mouse was contained in during an experiment. A random intercept for each experiment was assumed to account for possible similarities of the results obtained from a given experiment (i.e., as a “blocking effect”). […] Computations were performed using PROC MIXED (SAS Version 9.1). […]

Another series concerns rat trachea rings. Description: Tracheal relaxation assay (carbachol precontracted rings). The following applies: for Percentage of carbachol-induced contraction at 1 μM compound, Avg % / Percentage of carbachol-induced contraction at 10 μM compound, Avg %: 1 μM carbachol; for IC50: Rattus norvegicus, read-out: IC50 Avg; for Trachael Ring Contraction, %: average percentage of carbachol-induced rat tracheal ring contraction at 1 μM of test compound.

In series [3] the test system is ova-sensitized, ova-challenged mice. Description: In vivo anti-inflammatory assay in ovalbumin-sensitized mice (BALF eosinophils and cytokines). On the set-up: species or system mouse. The source says: A mouse model of asthma via ovalbumin sensitization was created as described in Example 23. The anti-inflammatory dosing paradigm (FIG. 10) was utilized to evaluate the anti-inflammatory effects of experimental compounds. The anti-inflammatory dosing paradigm consists of dosing the animals once a day starting on day 27 and finishing on either day 30 or 31 (1 hr prior to the aerosolized ovalbumin challenges on days 28 to 30) but not on day 32 when hyperreactivity evaluation occurs.
Bronchoalveolar lavage fluid (BALF) was collected by infusing 3.0 ml of saline with 10% fetal calf serum into the lungs via the trachea and then withdrawing the fluid. The total amount of cells/ml of BALF fluid was determined via manual cell count on hemocytometer. The BALF was centrifuged, supernatant removed and analyzed for cytokine concentrations as described below, and cell pellet reconstituted in 500 μL of fluid. Cytospin slides were prepared from the cell pellet using 100 μL of fluid and spinning samples for 5 minutes at 5000 rpms in a cytospin centrifuge. Following Hema3 stain, relative percentages of individual leukocytes were determined on a 200 cell count for each sample. The final concentration of individual leukocyte cell types per ml of BALF was determined by multiplication of the relative percentage of individual leukocytes with the total amount of cells/ml of BALF fluid.
The concentrations of cytokines in the BALF samples were determined using commercially available Bio-plex kits (Bio-Rad) for the detection of mouse IL-5, IL-13, and Eotaxin. The analysis of cytokine levels was measured using the Bio-Plex 200 (Bio-Rad) system according to the manufacturer's instructions.

Series [4] has the same test system. Description: Prevention of airway hyperreactivity development, anti-inflammatory dosing paradigm (Penh). The format is in vivo, mouse. The following applies: for airway hyperreactivity: intratracheal once a day, days 27 to 30 (1.091) or 27 to 31.
In the next series the target is T1, ERK2 (Homo sapiens, UniProt P28482).
T1 construct: purchased Upstate, Millipore Bioscience Division (KinaseProfiler service)
Description: Kinase panel screen (KinaseProfiler), ERK2. The settings on record: 10 μM ATP. The format is biochemical. How it is done: (§1) Compounds of Formulae I and II were examined for activity against a selected panel of kinases using the KinaseProfiler™ enzyme profiling services (Upstate, Millipore Bioscience Division). Percent kinase activity at 10 μM and 1 μM test compound and 10 μM ATP was determined against 40 wild-type recombinant human kinases according to Upstate's standard protocol: ASK1, BTK, CSK, c-RAF, GCK, GSK3β, IKKα, IKKβ, IRAK1, IRAK4, JNK1α1, JNK2α2, JNK3, ERK1, ERK2, MAPKAP-K2, MAPKAP-K3, MEK1, MKK4, MKK6, MKK7β, Mnk2, MSK1, PAK3, PDK1, PRAK, ROCK1, Rsk2, SAPK2a, SAPK2b, SAPK3, SAPK4, SRPK1, SRPK2, Syk, TAK1, TBK1, PI3-Kβ, PI3-Kγ, PI3-Kδ.

The next series concerns the target T2, ERK1 (Homo sapiens, UniProt P27361).
T2 construct: purchased Upstate, Millipore Bioscience Division (KinaseProfiler service)
Description: Kinase panel screen (KinaseProfiler), ERK1. The settings on record: 10 μM ATP. The format is biochemical. How it is done: as §1

The test system of the next series is LPS-challenged mice. Description: LPS-induced neutrophilia and cytokine production assay. Type of series: in vivo, mouse. The following applies: for IL-1β levels in BALF: intratracheal administration, LPS-challenged mice, FIG. 18.
Series [5] deals with rat tracheal rings pretreated with vehicle or IL-1β and TNF-α. Kind of series: Effect of inflammatory cytokines on tracheal relaxation. The following applies: FIG. 7. How it is done: Male Sprague-Dawley rats weighing 301-325 gm were sacrificed by asphyxiation in a CO2 chamber. Trachea were excised, cleaned of connective tissue and cut into cylindrical segments of 2-3 mm length. Tissues were treated for 18 hours at 37° C. in F12 media with penicillin-streptomycin and 0.1% BSA alone or with 10 ng/ml IL-1β and 100 ng/ml TNF-α. Tissues were then washed free of cytokines with Krebs buffer. Contractile tensions were measured using an isometric force transducer (Grass Instruments) as described for Example 3 and signals were analyzed using specialized software (Chart v5.5, ADInstruments). Tissues were treated with 300 nM carbachol for 10 to 15 minutes to induce a contractile response. Test Compounds were added cumulatively to the bath every 30 minutes and reductions in tension were recorded. Basal tension was subtracted from all values and data were reported as a percentage of the maximal carbachol-induced contraction. Data were fit to the Hill equation using GraphPad Prism v5 software.

Setting [6] is: rat, oral, 20-30 μmol/kg, plasma, mean of n = 3.

“Also recorded” adds a separate entry of the source.

T2 sequence (P27361 whole entry): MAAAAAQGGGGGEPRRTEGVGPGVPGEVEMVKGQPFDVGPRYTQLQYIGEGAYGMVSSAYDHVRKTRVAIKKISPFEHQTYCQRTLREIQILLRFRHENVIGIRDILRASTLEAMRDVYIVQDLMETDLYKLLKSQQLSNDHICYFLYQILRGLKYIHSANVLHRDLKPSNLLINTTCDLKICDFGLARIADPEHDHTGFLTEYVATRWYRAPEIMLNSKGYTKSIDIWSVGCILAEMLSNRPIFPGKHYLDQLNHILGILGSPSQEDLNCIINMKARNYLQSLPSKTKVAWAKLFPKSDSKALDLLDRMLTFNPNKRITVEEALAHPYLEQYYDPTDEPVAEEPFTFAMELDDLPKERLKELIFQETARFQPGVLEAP
T1 sequence (P28482 whole entry): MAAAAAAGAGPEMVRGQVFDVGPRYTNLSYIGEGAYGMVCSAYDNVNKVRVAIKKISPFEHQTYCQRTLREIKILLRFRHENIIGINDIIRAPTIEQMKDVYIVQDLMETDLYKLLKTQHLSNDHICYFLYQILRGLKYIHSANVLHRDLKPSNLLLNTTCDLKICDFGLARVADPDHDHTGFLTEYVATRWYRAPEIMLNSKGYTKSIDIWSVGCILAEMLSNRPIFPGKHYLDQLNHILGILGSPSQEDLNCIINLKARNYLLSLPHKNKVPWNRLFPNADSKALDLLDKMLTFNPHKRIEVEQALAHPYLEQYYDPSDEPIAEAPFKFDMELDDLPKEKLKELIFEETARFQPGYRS
Description for LPS-challenged mice: Male BALB/c mice, approximately 19 to 21 grams, were ordered from Charles River Laboratories (Raleigh, N.C.). All animals were challenged with aerosolized LPS (10 μg/ml) for 25 minutes on study day 0. LPS aerosol was generated using an Aerogen Aeroneb nebulizer and controller providing a flow of 400 μl/min and a particle size of 2-4 μm MMAD. Rolipram was administered i.p at 20 mg/kg. […] Four hours following LPS challenge, BALF was collected using a total of 3 ml of 0.9% sodium chloride containing 10% fetal calf serum. Total cell counts were determined using the Coulter Counter. For differential evaluations, BALF was centrifuged and cytospin slides prepared and stained with Hema3 stain. Manual leukocyte counts were then completed on 200 cells. The final concentration of individual leukocyte cell types per ml of BALF was determined by multiplication of the relative percentage of individual leukocytes with the total amount of cells/ml of BALF fluid. The concentration of IL-1β in the BALF samples was determined using commercially available Bio-plex kits (Bio-Rad). The analysis of cytokine levels was measured using the Bio-Plex 200 (Bio-Rad) system according to the manufacturer's instructions.

`c1cc2cc(CN3CCC[C@@H](Nc4ccc5[nH]ncc5c4)C3)ccc2o1` [Compound 1.131, (R)-N-(1-(benzofuran-5-ylmethyl)piperidin-3-yl)-1H-indazol-5-amine]: the “plasma and lung tissue concentrations after oral dosing” value in [1] (oral dosing, refers to Table 13 and Table 15) was “high plasma and lung tissue concentrations”. Besides, the “log10AUC (penh)” value in series [2] (15 μmol/kg oral) is 2.0283. Moreover, in series [2] (oral doses), the “reduction in airway hyperresponsiveness” value is “statistically significant reduction”. Moreover, in the series with rat trachea rings, the “Percentage of carbachol-induced contraction at 1 μM compound, Avg %” value was determined as 37.4%; the “Percentage of carbachol-induced contraction at 10 μM compound, Avg %” value was 14.2%; the IC50 is 243 nM; the “Trachael Ring Contraction, %” value is reported as 37%. Besides, the “eosinophils per ml of BALF (airway eosinophil infiltration)” value in [3] (dosed orally to day 31, anti-inflammatory dosing paradigm, FIG. 11) is “reduced”. Besides, in [4] (oral 15 μMol/kg once a day during days 27 to 31, methacholine on Day 32), the “airway hyperreactivity to methacholine” value is recorded as “prevention of airway hyperreactivity”.

Take `NC(=O)Cn1ccc2cc(CN3CC[C@@H](Nc4cccc5cnccc45)C3)ccc21` [Compound 2.059, (R)-2-(5-((3-(isoquinolin-5-ylamino)pyrrolidin-1-yl)methyl)-1H-indol-1-yl)acetamide]: the “Percent inhibition, ERK2” value was determined as 56% on ERK2 (1 μM test compound) and 12% at ERK2 (10 μM test compound). Further, the “Percent inhibition, ERK1” value at ERK1 (1 μM test compound) is 37%; at ERK1 (10 μM test compound) it was 4%. Further, the “IL-1β levels in BALF” value in the series with LPS-challenged mice was “reduction”. Moreover, in series [4], the “airway hyperreactivity” value is listed as “prevention of airway hyperreactivity”.

As to `OCCn1ccc2cc(CN3CC[C@@H](Nc4cccc5cnccc45)C3)ccc21` [Compound 2.066, (R)-2-(5-((3-(isoquinolin-5-ylamino)pyrrolidin-1-yl)methyl)-1H-indol-1-yl)ethanol], the “Percent inhibition, ERK2” value was determined as 50% on ERK2 (1 μM test compound) and 12% on ERK2 (10 μM test compound). In addition, the “Percent inhibition, ERK1” value on ERK1 (1 μM test compound) turned out to be 52%; at ERK1 (10 μM test compound) it was 15%. Also, in series [4], the “airway hyperreactivity” value is given as “prevention of airway hyperreactivity”.

With `CS(=O)(=O)Nc1cccc(CN2CCC[C@H](Nc3ccc4[nH]ncc4c3)C2)c1` [Compound 1.091, (S)-N-(3-((3-(1H-indazol-5-ylamino)piperidin-1-yl)methyl)phenyl)methanesulfonamide], the “oral bioavailability” value in [1] (oral dosing) is recorded as “poor oral bioavailability”. In addition, in series [1] (setting [6]), the “AUC (0-last)” value was “BLQ”, the Cmax entry is recorded as “BLQ”, the Tmax entry is reported as “BLQ” and the Vz_F entry was “BLQ”. In addition, the t½ entry in series [1] (setting [6]) is listed as “BLQ”. In addition, in series [5] (10 ng/ml IL-1β and 100 ng/ml TNF-α for 18 hours, 300 nM carbachol), the “relaxation of tracheal rings, cytokine-pretreated tissues” value is “fully efficacious”. Further, the “relaxation of tracheal rings, vehicle-pretreated tissues” value in [5] (300 nM carbachol) was “fully efficacious”. Moreover, the “potency in cytokine-pretreated versus vehicle-pretreated tissues” value in [5] is given as “slightly more potent in cytokine-pretreated tissues”. For the same molecule, the “log10AUC (penh)” value in series [2] (5 μmol/kg intratracheal) is 1.8127. Besides, in series [2] (15 μmol/kg intraperitoneal), the “log10AUC (penh)” value is listed as 2.0096. In addition, the “log10AUC (penh)” value in series [2] (15 μmol/kg oral) is recorded as 2.2309. Further, the “reduction in airway hyperresponsiveness” value in series [2] (i.p. route, compared to oral dosing) is “enhanced reduction”. In addition, the “bronchodilatory response” value in series [2] (intratracheal administration) is listed as “robust bronchodilatory response”. The “reduction in airway hyperresponsiveness” value in series [2] (oral doses) is listed as “did not yield a significant reduction”. In addition, in the series with rat trachea rings, the “Percentage of carbachol-induced contraction at 1 μM compound, Avg %” value came to 35.4%; the “Percentage of carbachol-induced contraction at 10 μM compound, Avg %” value is 14.3%; the IC50 worked out at 103 nM; the “Trachael Ring Contraction, %” value turned out to be 35%. Moreover, the “eosinophils in BALF” value in [3] (dosed i.t. to day 30, anti-inflammatory dosing paradigm, FIG. 12) is “reduction of eosinophils”. Besides, the “IL-1β levels in BALF” value in the series on LPS-challenged mice was “reduction”. Besides, the “LPS-induced pulmonary neutrophilia influx” value in the series with LPS-challenged mice (intratracheal dosing one hour prior to LPS challenge, FIG. 17) is “significant reduction; also recorded: dose-dependent inhibition”.

Source of the values: US20130172324A1, “METHOD FOR TREATING CARDIOVASCULAR DISEASES USING RHO KINASE INHIBITOR COMPOUNDS” (priority 2008, published 2013).
